Experimental data taken from patent US9913905B2 (EAGLE BIOLOGICS, INC., priority 2013, dated 2018).
“And” between values parts separate entries of the source, which are not always exact repeats. Identical values can stand only once.

Columns and labels:
biosimilar AVASTIN® = assay: Viscosity of concentrated aqueous solutions of biosimilar AVASTIN® (mVROC microfluidic viscometer); assay type: physicochemical
Experimental: All viscosities of well-mixed aqueous mAb solutions were measured using either a mVROC microfluidic viscometer (RheoSense) or a DV2T cone and plate viscometer (Brookfield; “C & P”) after a 5 minute equilibration at 25° C. (unless otherwise indicated). The mVROC viscometer was equipped with an “A” or “B” chip, each manufactured with a 50 micron channel. Typically, 0.10 mL of protein solution was back-loaded into a gastight microlab instrument syringe (Hamilton; 100 μL), affixed to the chip, and measured at multiple flow rates, approximately 20%, 40%, and 60% of the maximum pressure for each chip. […] An average absolute viscosity and standard deviation was then calculated from at least these three measurements. The C & P viscometer was equipped with a CPE40 or CPE52 spindle (cone angle of 0.8° and 3.0°, respectively) and 0.50 mL samples were measured at multiple shear rates between 2 and 400 s^−1. […] An extrapolated zero-shear viscosity was then determined from a plot of dynamic viscosity versus shear rate for the samples measured on a DV2T cone and plate viscometer. The extrapolated zero-shear viscosities reported are the average and standard deviation of at least three measurements.
First, Polysorbate 20 was removed using DETERGENT-OUT® TWEEN Medi Columns (G-Biosciences). […] Then, an appropriate amount of viscosity-reducing organophosphate solution (pH 7.0) was added to each aliquot such that upon reconstitution with water, the final excipient concentration was 0.10-0.25 M. The protein solutions were then freeze-dried. The dried protein cakes, containing protein and viscosity-reducing organophosphate (and a negligible amount of buffer salts) were reconstituted to a final volume of approximately 0.1 mL and viscosity-reducing organophosphate concentration as previously described. […] The dried protein cakes, containing protein and buffer salts were reconstituted to a final volume of approximately 0.10-0.50 mL. […] Viscosities reported were measured on a RheoSense mVROC microfluidic viscometer.
Viscosities reported were measured on a RheoSense mVROC microfluidic viscometer.

HERCEPTIN® = assay: Viscosity of concentrated aqueous solutions of HERCEPTIN® (mVROC microfluidic viscometer); assay type: physicochemical; settings: organophosphate 0.25M
biosimilar RITUXAN® = assay: Viscosity of concentrated aqueous solutions of biosimilar RITUXAN® (mVROC microfluidic viscometer); assay type: physicochemical; settings: organophosphate 0.10M
Experimental: (unless otherwise indicated).
A commercially-obtained biosimilar AVASTIN® (100-400 mg) containing pharmaceutical excipients (Polysorbate 20, phosphate and citrate buffers, mannitol, and NaCl) was purified. […] Samples buffer exchanged into 2 mM PB were first aliquoted. […] For samples buffer exchanged into 20 mM PB (PB control samples), the collected protein solution was freeze-dried. […] Using the same protocol, formulations containing biosimilar ERBITUX®, TYSABRI®, HERCEPTIN®, and […]® were also prepared.

[1] = tested on: therapeutically relevant mAbs; settings: in some cases; Table 3
Experimental: All viscosities of well-mixed aqueous mAb solutions were measured using either a mVROC microfluidic viscometer (RheoSense) or a DV2T cone and plate viscometer (Brookfield; “C & P”) after a 5 minute equilibration at 25° C. […] The mVROC viscometer was equipped with an “A” or “B” chip, each manufactured with a 50 micron channel. Typically, 0.10 mL of protein solution was back-loaded into a gastight microlab instrument syringe (Hamilton; 100 μL), affixed to the chip, and measured at multiple flow rates, approximately 20%, 40%, and 60% of the maximum pressure for each chip. […] An average absolute viscosity and standard deviation was then calculated from at least these three measurements. The C & P viscometer was equipped with a CPE40 or CPE52 spindle (cone angle of 0.8° and 3.0°, respectively) and 0.50 mL samples were measured at multiple shear rates between 2 and 400 s^−1. Specifically, samples were measured for 30 seconds each at 22.58, 24.38, 26.25, 28.13, 30, 31.88, 45, 67.5, 90, 112.5, 135, 157.5, 180, 202.5, 247, 270, 292.5, 315, 337.5, 360, 382, 400 s^−1, starting at a shear rate that gave at least 10% torque, and continuing until instrument torque reached 100%. An extrapolated zero-shear viscosity was then determined from a plot of dynamic viscosity versus shear rate for the samples measured on a DV2T cone and plate viscometer. […]

TYSABRI® = assay: Viscosity of concentrated aqueous solutions of TYSABRI® (mVROC microfluidic viscometer); assay type: physicochemical; settings: organophosphate 0.25M
[2] = tested on: respiratory syncytial virus; settings: two Phase III clinical trials in the pediatric population; cited from earlier work
REMICADE® = assay: Viscosity of concentrated aqueous solutions of […]® (mVROC microfluidic viscometer); assay type: physicochemical
biosimilar ERBITUX® = assay: Viscosity of concentrated aqueous solutions of biosimilar ERBITUX® (mVROC microfluidic viscometer); assay type: physicochemical; settings: Biosimilar ERBITUX® 215 mg/mL; excipient 0.25M
[3] = [Excipient] 0.10 M, [mAb] 217 mg/mL, 25° C., pH 7

“nicotinamide adenine dinucleotide phosphate [NADP]” showed a Viscosity (biosimilar AVASTIN®; [Excipient] 0.10 M, [mAb] 204 mg/mL, 25° C., pH 7) of 165 ± 23 cP and a Viscosity (biosimilar AVASTIN®; [Excipient] 0.25 M, [mAb] 186 mg/mL, 25° C., pH 7) of 242 ± 16 cP.

Work on `Nc1ncnc2c1ncn2[C@H]1C[C@H](O)[C@@H](COP(=O)(O)OP(=O)(O)OP(=O)(O)O)O1` [dATP-Tris, deoxyadenosine triphosphate] yielded a Viscosity (biosimilar AVASTIN®; [Excipient] 0.10 M, [mAb] 196 mg/mL, 25° C., pH 7) of 127 ± 0.2 cP.

`Nc1ncnc2c1ncn2[C@@H]1O[C@@H]2COP(=O)(O)OC2C1O` (some centres unmarked) [cAMP-Tris, cyclic adenosine monophosphate] showed a Viscosity (biosimilar AVASTIN®; Table 2, [Excipient] 0.40 M, [biosimilar AVASTIN®] 176 mg/mL) of 39.2 ± 4.3 cP, a Viscosity (biosimilar AVASTIN®; Table 2, [Excipient] 0.50 M, [biosimilar AVASTIN®] 178 mg/mL) of 66.1 ± 0.4 cP and a Viscosity (biosimilar AVASTIN®; Table 3, Biosimilar AVASTIN® 216 mg/mL, organophosphate 0.25M) of 85.7 ± 10.7 cP. It also gave a Viscosity (biosimilar AVASTIN®; [Excipient] 0.25 M, [mAb] 209 mg/mL, 25° C., pH 7) of 62.1 ± 1.8 cP, a Viscosity (biosimilar AVASTIN®; [Excipient] 0.25 M, [mAb] 216 mg/mL, 25° C., pH 7) of 85.7 ± 10.7 cP and a Viscosity (HERCEPTIN®; HERCEPTIN® 235 mg/mL) of 79.5 ± 2.7 cP. The Viscosity (biosimilar RITUXAN®; Biosimilar RITUXAN® 199 mg/mL) was 62.6 ± 1.7 cP, the Reduction of viscosity [1] was “up to 9 fold” and the Viscosity (TYSABRI®; TYSABRI® 227 mg/mL) was 80.1 ± 2.4 cP.

With `Nc1ccn([C@H]2C[C@H](O)[C@@H](COP(=O)(O)OP(=O)(O)OP(=O)(O)O)O2)c(=O)n1` [dCTP-Tris, deoxycytidine triphosphate] the Viscosity (biosimilar AVASTIN®; [3]) was 325 ± 13 cP.

For `CN(CC(=O)O)C(=N)NP(=O)(O)O` [Phosphocreatine], the Viscosity (biosimilar AVASTIN®; [Excipient] 0.25 M, [mAb] 231 mg/mL, 25° C., pH 7) was >>200 cP.

For “palivizumab: humanized mAb directed against an epitope in the A antigenic site of the F protein of respiratory syncytial virus”, the “Reduction of the risk of hospitalization due to respiratory syncytial virus infection” value [2] is listed as 55% and 45%.

Work on `Nc1ncnc2c1ncn2[C@@H]1O[C@H](COP(=O)(O)OP(=O)(O)O)[C@@H](O)[C@H]1O` [ADP, Adenosine Diphosphate] yielded a Viscosity (biosimilar AVASTIN®; [Excipient] 0.10 M, [mAb] 215 mg/mL, 25° C., pH 7) of 76.6 ± 2.2 cP.

`Cc1ncc(C[n+]2csc(CCOP(=O)(O)OP(=O)([O-])O)c2C)c(N)n1.Cc1nccn1CCCN` [TPP-APMI, thiamine pyrophosphate 1-(3-aminopropyl)-2-methyl-1H-imidazole] showed a Viscosity (biosimilar AVASTIN®; Table 2, [Excipient] 0.10 M, [biosimilar AVASTIN®] 191 mg/mL) of 23.2 ± 0.9 cP, a Viscosity (biosimilar AVASTIN®; Table 2, [Excipient] 0.20 M, [biosimilar AVASTIN®] 180 mg/mL) of 20.9 ± 0.4 cP and a Viscosity (biosimilar AVASTIN®; Table 2, [Excipient] 0.50 M, [biosimilar AVASTIN®] 180 mg/mL) of 111 ± 1 cP. The Viscosity (HERCEPTIN®; HERCEPTIN® 221 mg/mL) was 60.5 ± 0.3 cP, the Viscosity (REMICADE®; REMICADE® 223 mg/mL, organophosphate 0.25M) was 316 ± 11 cP and the Viscosity (TYSABRI®; TYSABRI® 238 mg/mL) was 76.3 ± 3.2 cP.

For `Nc1nc2c(ncn2[C@@H]2O[C@H](COP(=O)(O)OP(=O)(O)OP(=O)(O)O)[C@@H](O)[C@H]2O)c(=O)[nH]1` [GTP], the Viscosity (biosimilar AVASTIN®; [Excipient] 0.10 M, [mAb] 205 mg/mL, 25° C., pH 7) was 150 ± 12 cP.

With `C=C(OP(=O)(O)O)C(=O)O` [Phosphoenol pyruvate] the Viscosity (biosimilar AVASTIN®; [Excipient] 0.25 M, [mAb] 193 mg/mL, 25° C., pH 7) was >>200 cP.

With `Nc1nc2c(ncn2[C@H]2CC(O)[C@@H](COP(=O)(O)OP(=O)(O)OP(=O)(O)O)O2)c(=O)[nH]1` (some centres unmarked) [dGTP-Tris, deoxyguanosine triphosphate] the Viscosity (biosimilar AVASTIN®; [3]) was 238 ± 31 cP.

Molecule `Cc1cn([C@H]2CC(O)[C@@H](COP(=O)(O)OP(=O)(O)OP(=O)(O)O)O2)c(=O)[nH]c1=O` (some centres unmarked) [dTTP-Tris, deoxythymidine triphosphate] has a Viscosity (biosimilar AVASTIN®; [Excipient] 0.10 M, [mAb] 221 mg/mL, 25° C., pH 7) of 207 ± 6 cP.

In the case of `Nc1ncnc2c1ncn2[C@@H]1O[C@H](COP(=O)(O)OP(=O)([O-])OP(=O)([O-])O)[C@@H](O)[C@H]1O.[Na+].[Na+]` [ATP, adenosine triphosphate], the Viscosity (biosimilar AVASTIN®; [Excipient] 0.10 M, [mAb] 209 mg/mL, 25° C., pH 7) is reported as 52.3 ± 2.3 cP and the Viscosity (biosimilar AVASTIN®; [3]) is reported as 80.7 ± 7.1 cP.

Work on `Nc1ncnc2c1ncn2[C@@H]1O[C@H](COP(=O)(O)O)[C@@H](O)[C@H]1O` [AMP, Adenosine Monophosphate] yielded a Viscosity (biosimilar AVASTIN®; [Excipient] 0.10 M, [mAb] 206 mg/mL, 25° C., pH 7) of 63.2 ± 1.6 cP.

For `Cc1ncc(C[n+]2csc(CCOP(=O)(O)OP(=O)(O)O)c2C)c(N)n1.[Cl-]` [TPP, thiamine pyrophosphate], the “Viscosity reducing ability among the organophosphates examined” value (biosimilar AVASTIN®; Table 1, biosimilar AVASTIN®) was “greatest viscosity reducing ability”, the Viscosity (biosimilar AVASTIN®; Table 2, [Excipient] 0.10 M, [biosimilar AVASTIN®] 176 mg/mL) was 21.1 ± 1.7 cP and the Viscosity (biosimilar AVASTIN®; Table 2, [Excipient] 0.30 M, [biosimilar AVASTIN®] 191 mg/mL) was 129 ± 5 cP. It also gave a Viscosity (biosimilar AVASTIN®; Table 3, Biosimilar AVASTIN® 216 mg/mL, organophosphate 0.1M) of 47.6 ± 2.7 cP, a Viscosity (biosimilar AVASTIN®; [Excipient] 0.10 M, [mAb] 201 mg/mL, 25° C., pH 7) of 34.6 ± 2.1 cP and a Viscosity (biosimilar AVASTIN®; [Excipient] 0.10 M, [mAb] 216 mg/mL, 25° C., pH 7) of 47.6 ± 2.7 cP. For the same molecule, the Viscosity (biosimilar AVASTIN®; [Excipient] 0.25 M, [mAb] 210 mg/mL, 25° C., pH 7) was 44.5 ± 0.9 cP, the Viscosity (HERCEPTIN®; HERCEPTIN® 240 mg/mL) was 156 ± 3 cP and the Viscosity (REMICADE®; REMICADE® 158 mg/mL, organophosphate 0.10M) was 100 ± 9 cP. It also gave a Viscosity (REMICADE®; REMICADE® 232 mg/mL, organophosphate 0.25M) of 1773 ± 304 cP, a Viscosity (biosimilar RITUXAN®; Biosimilar RITUXAN® 193 mg/mL) of 102 ± 16 cP and a Viscosity (biosimilar ERBITUX®) of 55.6 ± 4.8 cP.
